The structures appear in SMILES notation.

In the assay the test system is hippocampal neurons. The assay can be described thus: Neurite outgrowth assay in cultured E18 rat hippocampal neurons (48 h, βIII-tubulin staining, Cellomics ArrayScan). The settings on record: Hippocampal neuron; for activity at 0.015625 µg/mL: 15.625 ng/mL compound; for activity at 0.015625 µg/mL / activity at 0.03125 µg/mL / activity at 0.0625 µg/mL / activity at 0.125 µg/mL / activity at 0.25 µg/mL / activity at 0.5 µg/mL: 48 hours, read-out: neurite growth length (% NTL); for activity at 0.03125 µg/mL: 31.25 ng/mL compound; for activity at 0.0625 µg/mL: 62.5 ng/mL compound; for activity at 0.125 µg/mL: 125 ng/mL compound; for activity at 0.25 µg/mL: 250 ng/mL compound; for activity at 0.5 µg/mL: 500 ng/mL compound; for EC200 / EC300: 48 h, estimated using linear interpolation; for EC200: 200% effective dose, read-out: ED200%; for EC300: 300% effective dose, read-out: ED300%. The assay is classed as cell-based. How it is done:
Pre-coating culture plates: On the day before the experiment, 96-well plates were pre-coated by plating 50 μL of poly-D-lysine solution (PDL, 0.5 mg/mL) in each well. The next morning, the plates were washed four or five times with HBSS or PBS (150 μL/rinse), then left in buffer until cell plating
Preparing the cells: A timed pregnant rat carrying E18 embryos was euthanized using an IACUC approved method. In a laminar flow hood, the embryos were removed and placed in a petri dish containing Hank's Balanced Salt Solution (HBSS) with 20 mM HEPES, pH 7.3. Pup brains were dissected (see Meberg et al., Methods cell Biol 71:111-127 (2003)) and hippocampi were collected in 15 mL a conical tube containing Hibernate E with SM1 (2% v/v).
Dissociation media was prepared by combining 4.5 mL of Hibernate E (without SM1) with 0.5 mL of trypsin and 100 μl of DNAse solution. The medium over the hippocampi was carefully removed and replaced with dissociation solution, then incubated at 37° C. for 15-20 minutes, occasionally swirling the tube.
Using flame polished cotton plugged Pasteur pipettes, the dissociation media was removed, and then 5 mL of Hibernate E containing SM1 were added. The tube was swirled to thoroughly wash the tissue. The tissue was allowed to settle to the bottom of the tube, and the rinse solution was carefully removed. This step was repeated 5 times to dilute out trypsin and DNAse and remove any debris from lysed cells.
The final rinse media was removed from the tube and 1 pipette-full (1-2 mL) of Hibernate E with SM1 was added. Using the flame-polished Pasteur pipette (pre-wetted with rinse media), the tube was triturated until all cells had dissociated and no visible chunks of tissue remained. Fewer than ten triturations were typically performed. The volume was adjusted to 8-12 mL using Hibernate E containing SM1, the well was mixed and cell concentration was determined.
Plating: The cells were diluted in culture media (NbActiv4 Cell-culture media) to a final concentration of 10,000 cells/mL. The HBSS was aspirated from PDL coated plates, and 150 μL of cell solution was loaded in the middle 48 wells at 1500 cells per well. Water was loaded in the outer wells to decrease evaporation from edge wells. Cells were allowed to adhere for 2 hours in tissue culture incubator prior to treatment.
Treatment: Compounds were diluted to various concentrations to provide 6 dose response concentrations of 500 ng/mL, 250 ng/mL, 125 ng/mL, 62.5 ng/mL, 31.25 ng/mL, and 15.625 ng/mL. The plates were cultured for 48 hours, exposed to the compound at the various dose response concentrations.
Fixing the cultures: The culture medium was removed from the plates and immediately replaced with 100-200 μL of warm (37° C.) 4% paraformaldehyde (“PFA”) solution in phosphate-buffered saline (“PBS”). The cells were fixed for 15-20 minutes at room temperature, and then rinsed with PBS (200 μl/well×3).
Staining and imaging: The PBS was removed and replaced with 100 μL of blocking/permeabilization buffer (PBS, 0.2% fish gelatin, 0.03% Triton X-100, 0.02% NaN3), then incubated overnight at 4° C. To this was added 100 μL of primary antibody solution (mouse anti-Beta III tubulin in blocking buffer) and incubate overnight at 4° C. The wells were rinsed with PBS (200 μl×3), which was then removed and replaced with 100 μL of secondary antibody solution (Goat anti-mouse Alexa 488, 10 μg/ml Hoechst 33342, 0.2% fish gelatin, 0.02% azide, in PBS). The plate was shaken gently on a rotating shaker for 2 hours, then rinsed with PBS (200 μl×5).
The plate was imaged using a Cellomics ArrayScan VTI in 2 different channels for nuclear staining (Hoechst) and cell body/neurite staining (βIII-tubulin). Typically, nine fields per well were imaged with a 5× objective and automatically traced by the Neuronal Profiling Bioapplication. To get reproducible results, at least 200-300 valid neurons were measured per condition. […]

As to `CC(C)CCCN1C(=S)N(CCCC[C@H]2CNC(C3CCCC3)=N2)C[C@H]1C` [Compound A2, (R)-1-(4-((S)-2-cyclopentyl-4,5-dihydro-1H-imidazol-4-yl)butyl)-4-methyl-3-(4-methylpentyl)imidazolidine-2-thione], the activity at 0.015625 µg/mL worked out at 114%, the activity at 0.03125 µg/mL was determined as 138%, the activity at 0.0625 µg/mL turned out to be 176% and the activity at 0.125 µg/mL amounted to 214%. Moreover, the activity at 0.25 µg/mL was determined as 265% and the activity at 0.5 µg/mL was 324%.

Turning to `CC(C)CCCN1C(=S)N(CCCC[C@H]2CNC(CCCc3ccccc3)=N2)C[C@H]1CC(C)C` [Compound A12, (R)-4-isobutyl-3-(4-methylpentyl)-1-(4-((S)-2-(3-phenylpropyl)-4,5-dihydro-1H-imidazol-4-yl)butyl)imidazolidine-2-thione], the activity at 0.015625 µg/mL was found to be 127%, the activity at 0.03125 µg/mL is 145%, the activity at 0.0625 µg/mL came to 194% and the activity at 0.125 µg/mL was determined as 237%. Moreover, the activity at 0.25 µg/mL was 266% and the activity at 0.5 µg/mL was determined as 240%.

As to `CCC(C)C1=N[C@@H](CCCCN2C[C@@H](c3ccccc3)N(CCCC(C)C)C2=S)CN1` (stereo partly drawn) [Compound A19, (4R)-1-(4-((4S)-2-(sec-butyl)-4,5-dihydro-1H-imidazol-4-yl)butyl)-3-(4-methylpentyl)-4-phenylimidazolidine-2-thione], the activity at 0.015625 µg/mL amounted to 121%, the activity at 0.03125 µg/mL came out at 179%, the activity at 0.0625 µg/mL was 253% and the activity at 0.125 µg/mL stood at 264%. The activity at 0.25 µg/mL came to 266% and the activity at 0.5 µg/mL turned out to be 276%.

Turning to `CC(C)CCCN1C(=S)N(CCCC[C@H]2CNC(C3CCCC3)=N2)C[C@H]1CC(C)C` [Compound A11, (R)-1-(4-((S)-2-cyclopentyl-4,5-dihydro-1H-imidazol-4-yl)butyl)-4-isobutyl-3-(4-methylpentyl)imidazolidine-2-thione], the activity at 0.015625 µg/mL worked out at 135%, the activity at 0.03125 µg/mL came out at 215%, the activity at 0.0625 µg/mL was 266% and the activity at 0.125 µg/mL is 273%. Further, the activity at 0.25 µg/mL worked out at 264% and the activity at 0.5 µg/mL is 256%.

As to `S=C1N(CCCC[C@H]2CNC(C3CCCC3)=N2)C[C@@H](c2ccccc2)N1CCC1CCCCC1` [Compound A23, (R)-3-(2-cyclohexylethyl)-1-(4-((S)-2-cyclopentyl-4,5-dihydro-1H-imidazol-4-yl)butyl)-4-phenylimidazolidine-2-thione], the activity at 0.015625 µg/mL was found to be 182%, the activity at 0.03125 µg/mL worked out at 252%, the activity at 0.0625 µg/mL is 260% and the activity at 0.125 µg/mL is 262%. Besides, the activity at 0.25 µg/mL came out at 232%, the activity at 0.5 µg/mL came to 186%, the EC200 is 0.007 µM and the EC300 is 0.091 µM.

`CCC(C)C1=N[C@@H](CCCCN2C[C@@H](c3ccccc3)N(CCC3CCCCC3)C2=S)CN1` (stereo partly drawn) [Compound A22, (4R)-1-(4-((4S)-2-(sec-butyl)-4,5-dihydro-1H-imidazol-4-yl)butyl)-3-(2-cyclohexylethyl)-4-phenylimidazolidine-2-thione]: the activity at 0.015625 µg/mL amounted to 139%, the activity at 0.03125 µg/mL was 201%, the activity at 0.0625 µg/mL was 257% and the activity at 0.125 µg/mL is 246%. For the same compound, the activity at 0.25 µg/mL came to 222% and the activity at 0.5 µg/mL worked out at 228%.

As to `CC(C)CCCN1C(=S)N(CCCC[C@H]2CNC(CCCc3ccccc3)=N2)C[C@H]1C` [Compound A3, (R)-4-methyl-3-(4-methylpentyl)-1-(4-((S)-2-(3-phenylpropyl)-4,5-dihydro-1H-imidazol-4-yl)butyl)imidazolidine-2-thione], the activity at 0.015625 µg/mL worked out at 116%, the activity at 0.03125 µg/mL worked out at 100%, the activity at 0.0625 µg/mL is 124% and the activity at 0.125 µg/mL amounted to 160%. In addition, the activity at 0.25 µg/mL is 257% and the activity at 0.5 µg/mL turned out to be 347%.

As for `CC(C)C[C@@H]1CN(CCCC[C@H]2CNC(C3CCCC3)=N2)C(=S)N1CCC1CCCCC1` [Compound A14, (R)-3-(2-cyclohexylethyl)-1-(4-((S)-2-cyclopentyl-4,5-dihydro-1H-imidazol-4-yl)butyl)-4-isobutylimidazolidine-2-thione], the activity at 0.015625 µg/mL was 195%, the activity at 0.03125 µg/mL was found to be 256%, the activity at 0.0625 µg/mL was found to be 271% and the activity at 0.125 µg/mL was found to be 283%. In addition, the activity at 0.25 µg/mL amounted to 277%, the activity at 0.5 µg/mL came out at 249%, the EC200 was 0.004 µM and the EC300 is over 0.543 µM.

With `CC(C)C[C@@H]1CN(CCCC[C@H]2CNC(CCCc3ccccc3)=N2)C(=S)N1CCC1CCCCC1` [Compound A15, (R)-3-(2-cyclohexylethyl)-4-isobutyl-1-(4-((S)-2-(3-phenylpropyl)-4,5-dihydro-1H-imidazol-4-yl)butyl)imidazolidine-2-thione], the activity at 0.015625 µg/mL is 114%, the activity at 0.03125 µg/mL turned out to be 135%, the activity at 0.0625 µg/mL is 199% and the activity at 0.125 µg/mL worked out at 201%. Besides, the activity at 0.25 µg/mL worked out at 267% and the activity at 0.5 µg/mL worked out at 247%.

As to `CC1CCC(CN2C(=S)N(CCCC[C@H]3CNC(C4CCCC4)=N3)C[C@H]2C)CC1` (stereo partly drawn) [Compound A8, (R)-1-(4-((S)-2-cyclopentyl-4,5-dihydro-1H-imidazol-4-yl)butyl)-4-methyl-3-((4-methylcyclohexyl)methyl)imidazolidine-2-thione], the activity at 0.015625 µg/mL was 95%, the activity at 0.03125 µg/mL was 128%, the activity at 0.0625 µg/mL amounted to 168% and the activity at 0.125 µg/mL was 231%. Also, the activity at 0.25 µg/mL is 257%, the activity at 0.5 µg/mL is 322%, the EC200 was 0.13 µM and the EC300 is 0.282 µM.

Take `C[C@@H]1CN(CCCC[C@H]2CNC(C3CCCC3)=N2)C(=S)N1CCC1CCCCC1` [Compound A5, (R)-3-(2-cyclohexylethyl)-1-(4-((S)-2-cyclopentyl-4,5-dihydro-1H-imidazol-4-yl)butyl)-4-methylimidazolidine-2-thione]: the activity at 0.015625 µg/mL was 105%, the activity at 0.03125 µg/mL came to 158%, the activity at 0.0625 µg/mL was determined as 188% and the activity at 0.125 µg/mL came out at 251%. In addition, the activity at 0.25 µg/mL turned out to be 246% and the activity at 0.5 µg/mL is 304%.

For the compound `CC(C)CCCN1C(=S)N(CCCC[C@H]2CNC(C3CCCC3)=N2)C[C@H]1c1ccccc1` [Compound A20, (R)-1-(4-((S)-2-cyclopentyl-4,5-dihydro-1H-imidazol-4-yl)butyl)-3-(4-methylpentyl)-4-phenylimidazolidine-2-thione], the activity at 0.015625 µg/mL was determined as 174%, the activity at 0.03125 µg/mL was determined as 234%, the activity at 0.0625 µg/mL came to 280% and the activity at 0.125 µg/mL was 249%. In addition, the activity at 0.25 µg/mL worked out at 278% and the activity at 0.5 µg/mL is 273%.

Source of the values: US11981660B2, “Neurite outgrowth promoters and uses thereof” (UNIVERSITY OF MIAMI, priority 2018, dated 2024).
